Each block holds one molecule with its values, some of them ahead of it.
System: 439559-082-T-J2-PDC spheroids viability
Experiment: Anticancer human tumor 439559-082-T-J2-PDC patient-derived colon adenocarcinoma cell line growth inhibition [GQUAD]
Conditions: for IC50: curve of first compound; for viability, T/C: stronger effect = lower value
In short: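 Viability of tumor cells grown as complex spheroids with endothelial and stromal cells, exposed to drug combinations. Top concentration at or near clinical Cmax (else 10 microM), diluted in half-log increments.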

[1] = second compound 0.0316 µM, first compound 0.0316 µM
[2] = second compound 0.0316 µM, first compound 0.1 µM
[3] = second compound 0.0316 µM, first compound 0.316 µM
[4] = second compound 0.0316 µM, first compound 1 µM
[5] = second compound 0.0316 µM, first compound 3.16 µM
[6] = second compound 0.0316 µM, first compound 10 µM
[7] = second compound 0.1 µM, first compound 0.0316 µM
[8] = second compound 0.1 µM, first compound 0.1 µM
[9] = second compound 0.1 µM, first compound 0.316 µM
[10] = second compound 0.1 µM, first compound 1 µM
[11] = second compound 0.1 µM, first compound 3.16 µM
[12] = second compound 0.1 µM, first compound 10 µM
[13] = second compound 0.316 µM, first compound 0.0316 µM
[14] = second compound 0.316 µM, first compound 0.1 µM
[15] = second compound 0.316 µM, first compound 0.316 µM
[16] = second compound 0.316 µM, first compound 1 µM
[17] = second compound 0.316 µM, first compound 3.16 µM
[18] = second compound 0.316 µM, first compound 10 µM
[19] = second compound 1 µM, first compound 0.0316 µM
[20] = second compound 1 µM, first compound 0.1 µM
[21] = second compound 1 µM, first compound 0.316 µM
[22] = second compound 1 µM, first compound 1 µM
[23] = second compound 1 µM, first compound 3.16 µM
[24] = second compound 1 µM, first compound 10 µM
[25] = second compound 3.16 µM, first compound 0.0316 µM
[26] = second compound 3.16 µM, first compound 0.1 µM
[27] = second compound 3.16 µM, first compound 0.316 µM
[28] = second compound 3.16 µM, first compound 1 µM
[29] = second compound 3.16 µM, first compound 3.16 µM
[30] = second compound 3.16 µM, first compound 10 µM
[31] = second compound 10 µM, first compound 0.0316 µM
[32] = second compound 10 µM, first compound 0.1 µM
[33] = second compound 10 µM, first compound 0.316 µM
[34] = second compound 10 µM, first compound 1 µM
[35] = second compound 10 µM, first compound 3.16 µM
[36] = second compound 10 µM, first compound 10 µM
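Also: spheroids exposed to the agents for 7 days before readout.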
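For viability, T/C in this document: percent of luminescence signal in DMSO vehicle wells taken as 100% viability.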

IC50 (second compound 0.0316 µM): 9530 nM | IC50 (second compound 0.1 µM): > 10000 nM | IC50 (second compound 0.316 µM): 6480 nM | IC50 (second compound 1 µM): 3090 nM | IC50 (second compound 3.16 µM): 1910 nM | IC50 (second compound 10 µM): 665 nM
SMILES: C#Cc1c(F)ccc2cc(O)cc(-c3ncc4c(N5CC6CCC(C5)N6)nc(OCC56CCCN5CC(F)C6)nc4c3F)c12 (stereo unspecified) + Cc1cnc(CNC(=O)c2c(=O)c3ccc(N4CCCN(C)CC4)nc3n3c2sc2ccccc23)cn1
viability, T/C [1]: 92.5% | viability, T/C [2]: 81.9% | viability, T/C [3]: 76% | viability, T/C [4]: 62.7% | viability, T/C [5]: 62.6% | viability, T/C [6]: 47.5% | viability, T/C [7]: 92.6% | viability, T/C [8]: 80.1% | viability, T/C [9]: 60.1% | viability, T/C [10]: 61.2% | viability, T/C [11]: 57.2% | viability, T/C [12]: 53% | viability, T/C [13]: 81.2% | viability, T/C [14]: 68.8% | viability, T/C [15]: 68.9% | viability, T/C [16]: 57.9% | viability, T/C [17]: 58.6% | viability, T/C [18]: 45.2% | viability, T/C [19]: 86.2% | viability, T/C [20]: 66.9% | viability, T/C [21]: 65.3% | viability, T/C [22]: 56.1% | viability, T/C [23]: 49.5% | viability, T/C [24]: 45.8% | viability, T/C [25]: 71.3% | viability, T/C [26]: 73.1% | viability, T/C [27]: 56.7% | viability, T/C [28]: 55.8% | viability, T/C [29]: 47.8% | viability, T/C [30]: 36.8% | viability, T/C [31]: 59.1% | viability, T/C [32]: 55.9% | viability, T/C [33]: 49.4% | viability, T/C [34]: 51.3% | viability, T/C [35]: 42.1% | viability, T/C [36]: 33.7%

IC50 (second compound 0.0316 µM): 1680 nM | IC50 (second compound 0.1 µM): 1760 nM | IC50 (second compound 0.316 µM): 1460 nM | IC50 (second compound 1 µM): 1180 nM | IC50 (second compound 3.16 µM): 1020 nM | IC50 (second compound 10 µM): 418 nM
SMILES: CC(C)(O)C1CCC(Nc2ccc3ncc(-c4cccc(C(F)(F)F)c4)n3n2)CC1 (stereo unspecified) + Cc1cnc(CNC(=O)c2c(=O)c3ccc(N4CCCN(C)CC4)nc3n3c2sc2ccccc23)cn1
viability, T/C [1]: 95.8% | viability, T/C [2]: 96.9% | viability, T/C [3]: 102% | viability, T/C [4]: 77.2% | viability, T/C [5]: 14.2% | viability, T/C [6]: 19.1% | viability, T/C [7]: 94.4% | viability, T/C [8]: 91.4% | viability, T/C [9]: 98.1% | viability, T/C [10]: 78.8% | viability, T/C [11]: 19.9% | viability, T/C [12]: 9.57% | viability, T/C [13]: 84.9% | viability, T/C [14]: 86.8% | viability, T/C [15]: 71.3% | viability, T/C [16]: 67% | viability, T/C [17]: 15.5% | viability, T/C [18]: 14.1% | viability, T/C [19]: 84.5% | viability, T/C [20]: 72.5% | viability, T/C [21]: 74.5% | viability, T/C [22]: 56.2% | viability, T/C [23]: 11.7% | viability, T/C [24]: 12.7% | viability, T/C [25]: 72.4% | viability, T/C [26]: 72.3% | viability, T/C [27]: 61% | viability, T/C [28]: 51.2% | viability, T/C [29]: 0.28% | viability, T/C [30]: 0.21% | viability, T/C [31]: 63.3% | viability, T/C [32]: 56.9% | viability, T/C [33]: 57.8% | viability, T/C [34]: 25.3% | viability, T/C [35]: 0.24% | viability, T/C [36]: 0.26%

IC50 (second compound 0.0316 µM): > 10000 nM | IC50 (second compound 0.1 µM): > 10000 nM | IC50 (second compound 0.316 µM): > 10000 nM | IC50 (second compound 1 µM): 9590 nM | IC50 (second compound 3.16 µM): 6530 nM | IC50 (second compound 10 µM): 3760 nM
SMILES: CCCS(=O)(=O)Nc1ccc(F)c(C(=O)c2c[nH]c3ncc(-c4ccc(Cl)cc4)cc23)c1F + Cc1cnc(CNC(=O)c2c(=O)c3ccc(N4CCCN(C)CC4)nc3n3c2sc2ccccc23)cn1
viability, T/C [1]: 97.5% | viability, T/C [2]: 103% | viability, T/C [3]: 103% | viability, T/C [4]: 101% | viability, T/C [5]: 101% | viability, T/C [6]: 77.1% | viability, T/C [7]: 96.9% | viability, T/C [8]: 99.5% | viability, T/C [9]: 99.7% | viability, T/C [10]: 99.3% | viability, T/C [11]: 99.1% | viability, T/C [12]: 53.2% | viability, T/C [13]: 84.4% | viability, T/C [14]: 89.7% | viability, T/C [15]: 90% | viability, T/C [16]: 86.1% | viability, T/C [17]: 88.1% | viability, T/C [18]: 54% | viability, T/C [19]: 78.4% | viability, T/C [20]: 78.5% | viability, T/C [21]: 78% | viability, T/C [22]: 78.2% | viability, T/C [23]: 83.8% | viability, T/C [24]: 48.9% | viability, T/C [25]: 70.9% | viability, T/C [26]: 71.5% | viability, T/C [27]: 70.8% | viability, T/C [28]: 63.5% | viability, T/C [29]: 68.1% | viability, T/C [30]: 39.7% | viability, T/C [31]: 60.8% | viability, T/C [32]: 58.6% | viability, T/C [33]: 70.2% | viability, T/C [34]: 64.5% | viability, T/C [35]: 57.5% | viability, T/C [36]: 5.82%

Reference: PubChem BioAssay AID2060510 (Molecular Pharmacology Branch, DTP, NCI, 2025)
